Results taken from patent US8367735B2, “Pharmaceutical compositions” (Crawford Healthcare Holdings Limited, priority 2006, dated 2013).

What was measured:
HSF [1] = assay: EMSA of HSF induction in human keratinocytes; type: cell-based
[2] = test system: Human keratinocytes (HaCaT); assay: HaCaT cell proliferation assay (viable cell count); type: cell-based; settings: 48 hours after treatment
Procedure: (§1) Cell Lines and Treatments. Human keratinocytes (HaCaT) were grown routinely in DMEM supplemented with 10% FBS and 2 mM L-glutamine at 37° C. in a 5% CO2 humidified atmosphere. Human umbilical vein endothelial cells (HUVEC), obtained from Clonetics (San Diego, Calif., USA), were cultured in EGM medium (Clonetics, San Diego, Calif., USA) supplemented with 2% FBS, […], […] hydrocortisone, […] gentamicin, 3 mg/ml BBE (bovine brain extract) at 37° C. in a 5% CO2 humidified atmosphere.
Compounds. CTM-208 was dissolved in absolute ethanol or DMSO (0.1 M stock solution), stored at −20° C., and diluted in the culture medium immediately before use. Control cells received the same amount of DMSO diluent that had no effect on cell proliferation at the concentrations tested. Methotrexate was dissolved in DMSO. […]
Cell Proliferation Assay. […] At 48 hours after the addition of the compounds, cell proliferation was determined by counting the number of viable cells in a hemocytometer. Cell viability was determined by the Trypan blue vital dye exclusion technique. IC50 values on the increase in the number of cells over the number of seeded cells were calculated at 48 hours after treatment.
Effect of CTM-208 on human keratinocyte proliferation. […] At 48 hours after the addition of the compounds, cell proliferation was determined by counting the number of viable cells in a hemocytometer. […]

human keratinocytes = assay: LD50 in human keratinocytes; type: cell-based
Procedure: Cell Proliferation Assay. HaCaT cells (2.5×10^4 cells/well) were seeded in 24-well plates. After 24 hours, the medium was removed and the test compounds were added at different concentrations. At 48 hours after the addition of the compounds, cell proliferation was determined by counting the number of viable cells in a hemocytometer. Cell viability was determined by the Trypan blue vital dye exclusion technique. IC50 values on the increase in the number of cells over the number of seeded cells were calculated at 48 hours after treatment.

NF-κB [3] = settings: chemical or physiological inducers; cited from earlier work
HSF1 = settings: cited from earlier work
NF-κB [4] = assay: EMSA of NF-κB DNA-binding activity in human endothelial cells; type: cell-based; settings: Endothelial cell
Procedure: as §1
(§2) Electrophoretic Mobility Shift Assay (EMSA). For nuclear extract preparation, cells (2×10^6 cells/sample) were lysed in hypotonic lysis buffer (10 mM NaCl, 3 mM MgCl2, 10 mM Tris-HCl pH 7.8, 0.5% NP40, 1 mM DTT) and then in high-salt extraction buffer (50 mM Tris-HCl, 400 mM NaCl, 1 mM EDTA, 1 mM EGTA, 1% Triton, 0.5% NP-40, 10% glycerol, 1 mM DTT, 1 mM PMSF, 0.5 μg/ml leupeptin, 0.7 μg/ml pepstatin, 0.2% aprotinin). Equal amounts of protein (6 μg/sample) were incubated with ^32P-labeled κB-DNA probe followed by analysis of DNA-binding activity by EMSA. Binding reactions were performed as described (11). Complexes were analyzed by nondenaturing 4% polyacrylamide gel electrophoresis. […] Quantitative evaluation of NF-κB-κB complex formation was determined by Typhoon-8600 Imager (Molecular Dynamics), using ImageQuant software (MDP analysis). […]

HSF [5] = assay: EMSA of HSF induction in human endothelial cells; type: cell-based
[6] = test system: human melanoma SK-MEL-28 cells; assay: Annexin V staining apoptosis, SK-MEL-28 cells; type: cell-based; settings: 24 hour incubation, in comparison to Cisplatin, Etoposide and Vinblastine, FIG. 2
Procedure: (§3) Cell Culture and Treatments. Human breast cancer MDA-MB-231, human melanoma SK-MEL-28, and human Burkitt lymphoma HS-Sultan cell lines, obtained from ATCC (Manassas, Va.), were grown at 37° C. in 5% CO2 and 95% humidified air in cell culture medium containing 10% fetal calf serum, 2 mM glutamine and antibiotics ([…] penicillin and 0.1 mg/ml streptomycin) (Life Technologies, Inc.). Each compound to be assayed was dissolved in absolute ethanol and diluted in the culture medium immediately before use. Control cells received the same amount of ethanol diluent. Cells were incubated with the assay compound or control diluent for 8 hours, unless indicated otherwise. Cell viability was determined by vital-dye exclusion assay (Trypan blue, 0.1%).
Flow Cytometry. For Annexin V staining, cells were washed once with PBS and resuspended in staining buffer (10 mM HEPES pH 7.4, 140 mM NaCl, 2.5 mM CaCl) with […] of AnnexinV-PI (AnnexinV-FITC, Becton-Dickinson). After 15 minutes of incubation in the dark, cells were directly analyzed in a FACScan (Becton-Dickinson). Cells were evaluated with CellQuest Program (Becton-Dickinson). Data were plotted using a histogram algorithm, in which the intensities of Annexin V-positive cells were represented as percent of untreated control. […]

[7] = test system: human breast cancer MDA-MB-231 cells; assay: DNA fragmentation (Cell-Death-Detection ELISA), MDA-MB-231 cells; type: cell-based; settings: 5 μM, 48 hour incubation, FIG. 3
Procedure: as §3
DNA Fragmentation. Cytoplasmic histone-bound DNA fragments (mono- and oligo-nucleosomes) generated during apoptosis were measured by Cell-Death-Detection ELISA kit (Roche Diagnostics, Mannheim, Germany), according to the manufacturer's instructions. Histone-associated DNA fragments were quantified spectrophotometrically using antibodies against DNA and histones in a colorimetric assay. Enrichment in cytoplasmic nucleosomes was expressed as fold-induction of levels in untreated controls. […] At 5 μM CTM-208, apoptosis was increased more than 35-fold over the untreated control.

[8] = test system: human Burkitt lymphoma HS-Sultan cells; assay: Annexin V staining apoptosis, HS-Sultan cells; type: cell-based
Procedure: as §3
Flow Cytometry. For Annexin V staining, cells were washed once with PBS and resuspended in staining buffer (10 mM HEPES pH 7.4, 140 mM NaCl, 2.5 mM CaCl) with […] of AnnexinV-PI (AnnexinV-FITC, Becton-Dickinson). After 15 minutes of incubation in the dark, cells were directly analyzed in a FACScan (Becton-Dickinson). Cells were evaluated with CellQuest Program (Becton-Dickinson). Data were plotted using a histogram algorithm, in which the intensities of Annexin V-positive cells were represented as percent of untreated control. Exemplary data obtained from human Burkitt lymphoma HS-Sultan cells and human melanoma SK-MEL-28 cells (24 hour incubation for SK-MEL-28 cells) are provided in FIGS. 1 and 2, respectively.
Electrophoretic Mobility Shift Assay (EMSA). […] Complexes were analyzed by nondenaturing 4% polyacrylamide gel electrophoresis. […] Quantitative evaluation of NF-κB-κB complex formation was determined by Typhoon-8600 Imager (Molecular Dynamics), using ImageQuant software (MDP analysis). […]

NF-κB [9] = assay: EMSA of NF-κB DNA-binding activity in human keratinocytes; type: cell-based; settings: Keratinocyte, read-out: NF-κB
Procedure: Electrophoretic Mobility Shift Assay (EMSA). For nuclear extract preparation, cells (2×10^6 cells/sample) were lysed in hypotonic lysis buffer (10 mM NaCl, 3 mM MgCl2, 10 mM Tris-HCl pH 7.8, 0.5% NP40, 1 mM DTT) and then in high-salt extraction buffer (50 mM Tris-HCl, 400 mM NaCl, 1 mM EDTA, 1 mM EGTA, 1% Triton, 0.5% NP-40, 10% glycerol, 1 mM DTT, 1 mM PMSF, 0.5 μg/ml leupeptin, 0.7 μg/ml pepstatin, 0.2% aprotinin). Equal amounts of protein (6 μg/sample) were incubated with ^32P-labeled κB-DNA probe followed by analysis of DNA-binding activity by EMSA. Binding reactions were performed as described (11). Complexes were analyzed by nondenaturing 4% polyacrylamide gel electrophoresis. Specificity of protein-DNA complexes was verified by immunoreactivity with polyclonal antibodies specific for the NF-κB subunit, p65/RelA. Quantitative evaluation of NF-κB-κB complex formation was determined by Typhoon-8600 Imager (Molecular Dynamics), using ImageQuant software (MDP analysis).

NF-κB [10] = assay: EMSA of NF-κB DNA-binding activity in HS-Sultan cells; type: cell-based; settings: Homo sapiens, FIG. 6
Procedure: as §3
as §2, with “Equal amounts of protein (6 μg/sample) were incubated with ^32P-labeled κB-DNA probe followed by analysis of DNA-binding activity by EMSA. Binding reactions were performed as described (11).” left out

human endothelial cells = assay: LD50 in human endothelial cells; type: cell-based
[11] = test system: Human endothelial cells (HUVEC); assay: HUVEC DNA synthesis (BrdU incorporation); type: cell-based; settings: 48 hours, read-out: IC50 endothelial cell proliferation (BrdU DNA synthesis)
Procedure: as §1
Compounds. CTM-208 was dissolved in absolute ethanol or DMSO (0.1 M stock solution), stored at −20° C., and diluted in the culture medium immediately before use. […]
DNA synthesis. […] DNA synthesis was evaluated by incorporation of 5-bromo-2-deoxy-uridine (BrdU) into cellular DNA 48 hours after the addition of the compounds. The amount of BrdU integrated into DNA was evaluated by using a monoclonal antibody against BrdU (cell proliferation ELISA colorimetric assay, Roche). Absorbance (l: 405 nm) was measured using a Victor microtiter plate reader (Wallac), and data were analyzed using the Allfit program.
Effect of CTM-208 on human endothelial cell proliferation. […] At 48 hours after the addition of the compounds, DNA synthesis was evaluated by incorporation of 5-bromo-2-deoxy-uridine (BrdU) into cellular DNA. […]

| Structure (SMILES) | concentration for HSF induction (HSF [1]) [µM] | IC50 [2] [nM] | LD50 (human keratinocytes) [µM] | concentration able to block NF-κB activation (NF-κB [3]) [µM] | concentration able to activate HSF1 and trigger synthesis of HSP70 (HSF1) [µM] | IC50 (NF-κB [4]) [nM] | effective concentration for HSF induction (HSF [5]) [µM] | induction of apoptosis (Annexin V-positive cells) [6] | apoptosis increase over untreated control (cytoplasmic nucleosome enrichment) [7] | apoptosis ([8]; 0.5 μM, 8 hour treatment) | concentration at which induction of apoptosis starts to be effective ([8]; Annexin V-PI staining, FIG. 7) [µM] | induction of apoptosis (Annexin V-positive cells) ([8]; in comparison to 15d-PGJ2, FIG. 1) | IC50 (NF-κB [9]) [nM] | IC50 (NF-κB [10]) [nM] | LD50 (human endothelial cells) [µM] | IC50 [11] [nM] |
| --- | --- | --- | --- | --- | --- | --- | --- | --- | --- | --- | --- | --- | --- | --- | --- | --- |
| CN(Cc1cnc2nc(N)nc(N)c2n1)c1ccc(C(=O)N[C@@H](CCC(=O)O)C(=O)O)cc1 [Methotrexate, reference compound] | >400 | < 100 | >400 |  |  |  |  |  |  |  |  |  |  |  |  |  |
| O=C1C=CCC1 [cyclopent-2-en-1-one] |  |  |  | 125 to 500 | 125 to 500 |  |  |  |  |  |  |  |  |  |  |  |
| COC(=O)[C@H](CSC1CC(=O)/C(=C/c2ccccc2)CC1O[Si](C)(C)C(C)(C)C)NC(=O)OC(C)(C)C (stereo partly drawn) [CTM-208, (R)-2-tert-Butoxycarbonylamino-3-[4E-benzylidene-2(tert-butyl-dimethylsilanyloxy)-5-oxo-cyclohexylsulfanyl]-propionic acid methyl ester] | 1.5 | 2000 | 400 |  |  | 5000 | <1 | potent inducer of apoptosis | more than 35 fold | approximately 90% | 0.1 | potent inducer of apoptosis | 19000 | 200 | >400 | 1600 |
